In data set [1] the test system is ovalbumin-induced oral tolerance. The following applies: mice, daily dose of 10 mg/kg IP or 50 mg/kg oral gavage; cited from earlier work.
Data set [2] addresses T1, EPAC2 (Mus musculus, UniProt Q9EQZ6).
T1 construct: made in house
T1 sequence (Q9EQZ6 1-1011): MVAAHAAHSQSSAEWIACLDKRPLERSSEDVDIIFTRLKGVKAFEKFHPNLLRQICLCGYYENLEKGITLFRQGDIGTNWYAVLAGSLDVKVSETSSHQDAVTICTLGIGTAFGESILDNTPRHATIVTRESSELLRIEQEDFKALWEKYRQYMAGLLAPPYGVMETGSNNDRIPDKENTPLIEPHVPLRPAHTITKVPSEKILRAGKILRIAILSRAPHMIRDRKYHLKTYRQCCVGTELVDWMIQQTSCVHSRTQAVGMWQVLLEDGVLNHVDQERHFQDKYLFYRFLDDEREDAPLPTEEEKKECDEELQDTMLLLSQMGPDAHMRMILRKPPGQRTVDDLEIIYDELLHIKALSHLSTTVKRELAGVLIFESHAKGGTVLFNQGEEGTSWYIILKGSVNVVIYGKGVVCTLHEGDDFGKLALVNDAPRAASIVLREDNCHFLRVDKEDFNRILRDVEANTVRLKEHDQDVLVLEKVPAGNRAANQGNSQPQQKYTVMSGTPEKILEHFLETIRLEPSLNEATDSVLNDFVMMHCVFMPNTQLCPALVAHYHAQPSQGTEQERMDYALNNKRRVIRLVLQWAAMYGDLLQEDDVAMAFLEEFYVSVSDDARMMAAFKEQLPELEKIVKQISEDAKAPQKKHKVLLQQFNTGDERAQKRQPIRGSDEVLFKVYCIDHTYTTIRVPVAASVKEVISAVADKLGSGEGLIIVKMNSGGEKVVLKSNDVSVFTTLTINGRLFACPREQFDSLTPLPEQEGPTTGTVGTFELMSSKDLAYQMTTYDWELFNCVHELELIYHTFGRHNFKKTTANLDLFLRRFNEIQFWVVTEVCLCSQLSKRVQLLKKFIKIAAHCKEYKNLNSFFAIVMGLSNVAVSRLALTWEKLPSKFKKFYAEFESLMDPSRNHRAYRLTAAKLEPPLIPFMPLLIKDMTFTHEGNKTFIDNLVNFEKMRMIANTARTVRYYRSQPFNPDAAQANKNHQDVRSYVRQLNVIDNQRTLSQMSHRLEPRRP
As to the kind of experiment: Protein thermal denaturation assay (Sypro Orange), EPAC2. As for the experimental part:
Thermal denaturation assay was performed using a BioRad CFX96 Touch^TM Real-Time PCR Detection system as described previously. […] Melting temperatures (Tm) were calculated by fitting the sigmoidal melt curve to the Boltzmann equation as described using GraphPad Prism, with R^2 values of >0.99[40].

Details of data set [3]: method as in Our recent studies. The settings on record: ref Our recent studies; cited from earlier work.
In data set [4] the target is T1, EPAC2. Briefly: In vitro GEF activity assay (Rap1b-BODIPY-GDP), EPAC2. It is filed as biochemical. The following applies: for mode of inhibition toward cAMP: cAMP titration with 5 µM ESI-09 or 1 µM HJC0726.
Data set [5] deals with T1, EPAC2. As to the kind of experiment: 8-NBD-cAMP competition assay. Type of data set: binding. On the procedure:
Test compounds at various concentrations were added to the reaction mix, and fluorescence intensity signals from the 8-NBD probe before and after the addition of test compounds was monitored using a SpectaMaxM2 microplate reader (Molecular Devices, Silicon Valley, CA, USA) with excitation/emission wavelengths set at 470/540 nm.

The target of another data set is T2, EPAC1h 149-318 (Homo sapiens, UniProt O95398).
T2 construct: the CBD of human EPAC1 (aa. 149-318); made in house
T2 sequence (O95398 149-318 isoform O95398-3): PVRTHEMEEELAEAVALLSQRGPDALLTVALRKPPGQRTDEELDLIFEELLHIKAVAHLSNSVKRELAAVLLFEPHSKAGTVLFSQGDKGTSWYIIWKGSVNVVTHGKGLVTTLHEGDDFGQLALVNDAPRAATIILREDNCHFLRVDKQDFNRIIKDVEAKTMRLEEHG
Briefly: {15N,1H} HSQC NMR of EPAC1 cAMP binding domain. The source says:
In addition to the thermo-unfolding experiments, {^15N, ^1H} Heteronuclear Single Quantum Coherence (HSQC) spectra were acquired to characterize the interaction between ESI-09 and the CBD of human EPAC1 (aa. 149-318) and address whether ESI-09 acts as a non-specific denaturant. The {^15N, ^1H} chemical shifts serve as excellent sensors for protein structure and dynamics as they provide information about the local chemical environment surrounding the amides of every amino acid (except prolines) within the protein. EPAC1h (149-318) has already been extensively analyzed by NMR spectroscopy. It results in HSQC spectra with well-dispersed peaks, which are representative of a fully folded protein (Fig. 5A). […]
EPAC1h 149-318 was expressed and purified using previously documented protocols[24][25][26][27] and dialyzed into NMR buffer (50 mM Tris, 50 mM NaCl, 2 mM EDTA, 2 mM EGTA, 1 mM DTT and 0.02% NaN3, pH 7.6). […] Gradient- and sensitivity- enhanced {^15N, ^1H} heteronuclear single quantum coherence (HSQC) spectra with 128 (t1) and 1024 (t2) complex points and spectral widths of 31.82 and 14.06 ppm for the ^15N and ^1H dimensions, respectively, were recorded with 8 scans and a recycle delay of 1 s. […] All spectra were processed with NMRPipe[41] and analyzed in Sparky[42].

The test system of data set [6] is pancreatic ductal adenocarcinoma. The following applies: in vivo administration; cited from earlier work.
Another data set deals with fatal rickettsioses. The following applies: mice, daily dose of 10 mg/kg IP or 50 mg/kg oral gavage; cited from earlier work.
Data set [7] is described as follows: Solubility measurement by HPLC analysis. It is filed as physicochemical. As for the experimental part: ESI-09 and its analogs were synthesized following the recently reported synthetic procedures. The solubility of the selected compounds was measured by HPLC analysis following the reported protocol.
The next data set addresses T3, full-length EPAC1 (Homo sapiens, UniProt O95398).
T3 construct: made in house
T3 sequence (O95398 1-881 isoform O95398-3): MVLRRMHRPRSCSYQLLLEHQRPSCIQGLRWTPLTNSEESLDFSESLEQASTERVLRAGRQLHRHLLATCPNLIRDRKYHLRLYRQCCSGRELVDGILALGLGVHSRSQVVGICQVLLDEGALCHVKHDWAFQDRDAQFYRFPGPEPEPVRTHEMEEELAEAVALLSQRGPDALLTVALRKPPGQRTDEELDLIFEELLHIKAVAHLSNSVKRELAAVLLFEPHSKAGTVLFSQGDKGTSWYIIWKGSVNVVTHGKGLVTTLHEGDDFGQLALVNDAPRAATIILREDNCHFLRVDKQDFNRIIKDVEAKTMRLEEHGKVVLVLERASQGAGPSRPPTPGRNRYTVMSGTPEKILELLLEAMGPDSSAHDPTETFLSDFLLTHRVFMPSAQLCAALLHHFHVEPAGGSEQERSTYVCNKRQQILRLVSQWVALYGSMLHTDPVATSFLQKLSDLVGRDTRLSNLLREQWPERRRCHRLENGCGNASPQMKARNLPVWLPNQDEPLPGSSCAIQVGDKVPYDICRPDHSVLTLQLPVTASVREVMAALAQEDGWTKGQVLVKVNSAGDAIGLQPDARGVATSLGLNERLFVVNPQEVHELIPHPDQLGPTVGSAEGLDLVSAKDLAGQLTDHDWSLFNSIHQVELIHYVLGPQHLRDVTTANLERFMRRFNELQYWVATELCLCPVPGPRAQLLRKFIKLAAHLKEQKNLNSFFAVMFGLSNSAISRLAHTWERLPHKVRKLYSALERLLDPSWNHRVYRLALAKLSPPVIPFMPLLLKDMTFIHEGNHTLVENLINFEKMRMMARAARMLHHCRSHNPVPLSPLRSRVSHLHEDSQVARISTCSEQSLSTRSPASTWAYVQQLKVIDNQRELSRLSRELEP
Briefly: In vitro GEF activity assay (Rap1b-BODIPY-GDP), EPAC1. The following applies: vs ESI-09. Type of data set: biochemical. The source says: The guanine nucleotide exchange activity of EPAC proteins can be biochemically determined using a coupled exchange assay, in which Rap1 loaded with a fluorescent GDP analog, 2′-/3′-O-(N′-methylanthraniloyl)guanosine-5′-O-diphosphate (MANT-GDP), is used as the substrate. The exchange of Rap1-bound MANT-GDP by free unlabeled GDP leads to a decrease in fluorescence as MANT-GDP contains an environment sensitive fluorophore, MANT, whose fluorescence intensity increases upon binding to Rap1. However, the MANT-GDP based GEF assay is not well suited for ESI-09 analogs because they absorb lights within the excitation emission wavelengths of the fluorophore.
Recombinant full-length human EPAC1, mouse EPAC2 and C-terminal truncated Rap1B(1-167) were purified as described previously.
In vitro EPAC GEF activity was measured as previously described with the exception that purified Rap1B(1-167) was loaded with BODIPY-GDP instead of MANT-GDP[39]. […] The exchange reaction was monitored using a Spectramax M2 Plate Reader (Molecular Devices) with the excitation and emission wavelengths set at 485 and 515 nm, respectively. […]

Setting [8] is: 50 nM EPAC2, 60 nM 8-NBD-cAMP, read-out: IC50, potency in competing with 8-NBD-cAMP binding to EPAC2.
Where [9] appears, read: water, read-out: Solubility in water (converted).

Converted amounts (≈) assume the structure as drawn. “And” between values parts separate entries of the source, which are not always exact repeats. Equal values may be shown once. “Also recorded” adds a separate entry of the source. Read-outs that look alike come from different tables or passages of the source.

What is called IC50 is the midpoint of a concentration-inhibition curve. Usually solubility stands for the concentration that dissolves in the medium under given conditions. Turning to `CC(C)(C)c1cc(C(=O)C(C#N)=NNc2cccc(Cl)c2)no1` [ESI-09, 3-[5-(tert-butyl)isoxazol-3-yl]-2-[2-(3-chlorophenyl) hydrazono] -3-oxopropanenitrile], the “effect on ovalbumin-induced oral tolerance” value in data set [1] is given as “compromising ovalbumin-induced oral tolerance”. Also, the “effect on Tm of EPAC2” value on EPAC2 [2] (ESI-09 1-20 µM, no cAMP) is reported as “didn't shift the Tm to lower temperature; also recorded: no significant difference in thermo-denaturation”; at EPAC2 [2] (ESI-09 in the presence of 100 µM cAMP) it was “didn't lead to further changes in Tm”. The bioavailability result in data set [3] is “excellent bioavailability”. In addition, the “mode of inhibition toward cAMP” value on EPAC2 [4] is “reversible competitive EPAC2 inhibitors”. The IC50 at EPAC2 [5] (setting [8]) came out at 9 ± 1.2 µM. For the same compound, the “effect on HSQC spectrum of EPAC1h 149-318” value is reported as “Only minor chemical shift changes” at EPAC1h 149-318 (50 μM ESI-09, 100 μM protein) and “almost every peak broadens beyond detection” at EPAC1h 149-318 (500 μM ESI-09, 100 μM protein). Moreover, the “effect on pancreatic ductal adenocarcinoma invasion and metastasis” value in data set [6] is “inhibits pancreatic ductal adenocarcinoma invasion and metastasis”. The “effect in fatal rickettsioses” value in the data set with fatal rickettsioses is recorded as “protecting mice from fatal rickettsioses”. Also, the solubility in data set [7] (ethanol, organic solvent or mixture, ethanol, read-out: Solubility in ethanol (converted)) is 15000 µg/mL and 45300 µM; in data set [7] (setting [9]), 5.95 ± 0.83 µg/mL (≈ 18 µM).
For `CC(C)(C)c1cc(C(=O)/C(C#N)=N/Nc2ccccc2Cl)no1` [HJC0693], the IC50 on EPAC2 [5] (setting [8]) came to 28.3 ± 4 µM.
As for `CC(C)(C)c1cc(C(=O)/C(C#N)=N/Nc2ccc(Cl)cc2)no1` [HJC0694], the IC50 on EPAC2 [5] (setting [8]) is 26.5 ± 4.1 µM.
With `CC(C)(C)c1cc(C(=O)/C(C#N)=N/Nc2ccccc2)no1` [HJC0695], the IC50 on EPAC2 [5] was 59.8 ± 9.4 µM.
As for `CC(C)(C)c1cc(C(=O)/C(C#N)=N/Nc2cc(Cl)ccc2Cl)no1` [HJC0696], on EPAC2 [5] (setting [8]), the IC50 is 7.3 ± 1.2 µM.
With `CC(C)(C)c1cc(C(=O)/C(C#N)=N/Nc2cc(Cl)cc(Cl)c2)no1` [HJC0726], the “mode of inhibition toward cAMP” value at EPAC2 [4] is “reversible competitive EPAC2 inhibitors”. For the same compound, the “potency relative to ESI-09 in inhibiting EPAC2” value on EPAC2 [4] (vs ESI-09) was “five-fold more potent”. In addition, the IC50 at EPAC2 [5] (setting [8]) worked out at 1.9 ± 0.3 µM. The “increase in potency relative to ESI-09 in the 8-NBD-cAMP competition assay” value on EPAC2 [5] (vs ESI-09) worked out at 5 fold. Also, the “potency relative to ESI-09 in inhibiting EPAC1” value at full-length EPAC1 is listed as “five-fold more potent”. Further, the solubility in data set [7] (ethanol, organic solvent or mixture, read-out: Solubility in ethanol (converted)) is 6800 µg/mL and 18600 µM; in data set [7] (setting [9]), 45.4 µg/mL and 124 µM.
Regarding `CC(C)(C)c1cc(C(=O)/C(C#N)=N/Nc2cccc(Cl)c2Cl)no1` [HJC0750], the IC50 on EPAC2 [5] (setting [8]) came to 35.6 ± 7.8 µM.
In the case of `CC(C)(C)c1cc(C(=O)/C(C#N)=N/Nc2ccc(Cl)c(Cl)c2)no1` [HJC0777], at EPAC2 [5] (setting [8]), the IC50 stood at 3 ± 0.6 µM.
As to `Nc1ncnc2c1ncn2[C@@H]1O[C@@H]2COP(=O)(O)O[C@H]2[C@H]1O` [cAMP, reference compound], the “melting temperature Tm of EPAC2” value at EPAC2 [2] (in the presence of 100 µM cAMP (about 48°C without)) is “around 46 °C”.

Values taken from PMC4366844, “Biochemical and Pharmacological Characterizations of ESI-09 Based EPAC Inhibitors: Defining the ESI-09 “Therapeutic Window”” (Scientific Reports, 2015).
